Results: ChEMBL document CHEMBL5365414, “Synthesis and activity of β-carboline antimalarials targeting the Plasmodium falciparum heat shock 90 protein” (Bioorg Med Chem Lett, 2023)
pEC50, pIC50: −log10 of the molar value.

Experiments:
Plasmodium berghei [1] = assay: Antimalarial activity against luciferase expressing liver stage Plasmodium berghei ANKA infected in human Huh-7 cells assessed as reduction in parasite load at 10 uM measured after 44 hrs post infection by Bright-glo reagent based luciferase reporter assay relative to control; assay type: functional; set-up: scale not given: the % may be the effect or the level left
Huh-7 [2] = assay: Cytotoxicity against human Huh-7 cells infected with luciferase expressing liver stage Plasmodium berghei ANKA assessed as reduction in cell viability at high doses measured after 44 hrs post infection by Cell-TiterFluor viability assay; assay type: toxicity, cell-based; conditions: huh-7, 44 h
Plasmodium berghei [3] = assay: Antimalarial activity against luciferase expressing liver stage Plasmodium berghei ANKA infected in human Huh-7 cells assessed as reduction in parasite load measured after 44 hrs post infection by Bright-glo reagent based luciferase reporter assay; assay type: functional, organism-based; conditions: Huh-7, 44 h
Huh-7 [4] = assay: Cytotoxicity against human Huh-7 cells infected with luciferase expressing liver stage Plasmodium berghei ANKA assessed as reduction in cell viability at 10 uM measured after 44 hrs post infection by Cell-TiterFluor viability assay relative to control; assay type: toxicity, cell-based; conditions: huh-7, 44 h
HSP90 = target: T1, HSP90 (Plasmodium falciparum 3D7, UniProt Q8IL32); assay: Inhibition of recombinant his-tagged Plasmodium falciparum Hsp90 GHKL domain expressed in Escherichia coli BL21 (DE3) cells by bis-ANS binding assay
T1 sequence (Q8IL32 whole entry): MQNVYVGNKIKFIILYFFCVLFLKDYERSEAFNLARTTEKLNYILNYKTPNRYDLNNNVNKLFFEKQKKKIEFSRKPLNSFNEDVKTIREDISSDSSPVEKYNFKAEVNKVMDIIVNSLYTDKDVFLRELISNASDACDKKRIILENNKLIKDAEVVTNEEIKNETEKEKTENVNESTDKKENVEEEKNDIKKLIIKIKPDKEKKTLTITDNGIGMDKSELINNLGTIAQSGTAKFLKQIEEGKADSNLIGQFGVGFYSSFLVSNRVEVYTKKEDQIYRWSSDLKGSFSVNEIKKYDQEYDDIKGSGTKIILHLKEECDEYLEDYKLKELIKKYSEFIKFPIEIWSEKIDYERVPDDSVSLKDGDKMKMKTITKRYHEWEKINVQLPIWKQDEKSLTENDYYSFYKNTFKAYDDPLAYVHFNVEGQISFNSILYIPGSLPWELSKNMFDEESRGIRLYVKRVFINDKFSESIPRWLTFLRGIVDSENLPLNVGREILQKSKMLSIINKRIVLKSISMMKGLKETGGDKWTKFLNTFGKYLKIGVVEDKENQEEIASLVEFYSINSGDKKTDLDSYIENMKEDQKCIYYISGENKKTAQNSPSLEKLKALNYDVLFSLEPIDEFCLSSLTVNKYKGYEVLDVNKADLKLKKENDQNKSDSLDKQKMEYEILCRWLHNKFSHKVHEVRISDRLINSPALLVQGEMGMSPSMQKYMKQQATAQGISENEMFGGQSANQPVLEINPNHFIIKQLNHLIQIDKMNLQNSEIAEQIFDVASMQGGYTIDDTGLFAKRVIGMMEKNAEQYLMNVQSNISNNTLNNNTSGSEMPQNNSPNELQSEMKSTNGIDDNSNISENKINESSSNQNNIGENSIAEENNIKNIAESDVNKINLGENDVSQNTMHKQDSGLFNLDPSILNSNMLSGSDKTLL

Huh-7 [5] = assay: Cytotoxicity against human Huh-7 cells infected with luciferase expressing liver stage Plasmodium berghei ANKA assessed as reduction in cell viability upto 100 uM measured after 44 hrs post infection by Cell-TiterFluor viability assay; assay type: toxicity, cell-based; conditions: huh-7, 44 h

Compound	Activity (Plasmodium berghei [1])	also measured
c1ccc2c(c1)[nH]c1c(C3CC3)nccc12	>50%	–
c1cncc(-c2nccc3c2[nH]c2ccccc23)c1	>50%	–
Clc1ccc2[nH]c3c(-c4ccccc4)nccc3c2c1	>50%	–
N#Cc1ccc(-c2nccc3c2[nH]c2ccccc23)cc1	>50%	–
Cc1cccc(-c2nccc3c2[nH]c2ccc(Cl)cc23)c1	41%	–
FC(F)(F)c1cccc(-c2nccc3c2[nH]c2ccc(Cl)cc23)c1	15%	Activity (Huh-7 [2]): Toxic; pEC50 (Plasmodium berghei [3]): 5.28
c1ccc2c(c1)[nH]c1c(-c3ccsc3)nccc12	>50%	Activity (Huh-7 [4]): 78%
CC1NCCc2c1[nH]c1ccc(Cl)cc21 (stereo not drawn)	–	pIC50 (HSP90): 4.91
O=C1C(O)=C([C@H]2CC[C@H](c3ccc(Cl)cc3)CC2)C(=O)c2ccccc21 [ATOVAQUONE]	–	pEC50 (Plasmodium berghei [3]): 8.00
Clc1cccc(-c2nccc3c2[nH]c2ccccc23)c1	>50%	–
c1ccc2c(c1)[nH]c1cnccc12 [NORHARMANE]	>50%	–
COc1cccc(-c2nccc3c2[nH]c2ccc(Cl)cc23)c1	>50%	Activity (Huh-7 [4]): 78%
COc1ccc2[nH]c3c(-c4ccccc4)nccc3c2c1	>50%	–
FC(F)(F)c1ccc(-c2nccc3c2[nH]c2ccccc23)cc1	5.8%	Activity (Huh-7 [5]): Non-Toxic; pEC50 (Plasmodium berghei [3]): 5.28
COc1ccc(-c2nccc3c2[nH]c2ccccc23)cc1	>50%	–
COc1ccc2c(c1)[nH]c1c(C3CC3)nccc12	>50%	–
Clc1cccc(-c2nccc3c2[nH]c2ccc(Cl)cc23)c1	>50%	–
